The values below come from the NIST ThermoML archive (doi:10.1016/j.jct.2008.01.007).

SMILES strings stand for the structures. Numbers after ± are expanded uncertainties.

For this data set the following is noted: 101 kPa, Liquid.

As usually defined, the mass density is the mass of a sample divided by its volume. As usually defined, the viscosity is the resistance of a fluid to flow. Take `OCCN1CCOCC1` [4-morpholineethanol]: the mass density reads like this: (293.15 K) 1076.58 ± 3.1 kg/m3; (303.15 K) 1066.51 ± 3 kg/m3; (313.15 K) 1059.19 ± 2.8 kg/m3; (323.15 K) 1052.64 ± 2.7 kg/m3; (333.15 K) 1046.43 ± 2.6 kg/m3. The viscosity by setting is: (293.15 K) 26.58 ± 1.8 mPa·s; (303.15 K) 21.99 ± 1.5 mPa·s; (313.15 K) 17.32 ± 1.2 mPa·s; (323.15 K) 12.86 ± 0.92 mPa·s; (333.15 K) 8.284 ± 0.64 mPa·s.
